Data: patent publication US20220362127A1, “BIOENERGETIC COMBINATIONS AND METHODS OF USING SAME” (Conopco, Inc., d/b/a UNILEVER, priority 2019, published 2022)
Marks after values point to notes of the source that are not given here.

Columns and labels:
human keratinocytes [1] = assay: Mitochondrial fragmentation in keratinocytes, UV Study (Example 2), TPEF imaging of NADH, PSD exponent β; format: cell-based; settings: B3 10 mM, AceMet 500 uM, MeNAM 10 mM alone or 500 uM with B3; for Effect on UV-induced mitochondrial fragmentation in words: UV-exposed; for Mitochondrial Fragmentation (−) UV (3 days) / Mitochondrial Fragmentation (+) UV (4 days): keratinocytes; for Mitochondrial Fragmentation (−) UV (3 days): 3 days before UV exposure, control 1.30; for Mitochondrial Fragmentation (+) UV (4 days): 4 days after UV exposure (4 J/cm^2 UVA+UVB, 14 min daily), UV control 1.58
Description: Test compounds (B3, AceMet and MeNAM) were purchased from Sigma (St. Louis, Mo.). Cell culture growth media (Epilife media with calcium (Cat #MEPI500CA) and Epilife media supplement HKGS 100X (Cat #S-001-5)) was purchased from Thermofisher (Waltham, Mass.). Cryopreserved human keratinocytes cells (˜1×10^6 cells) were plated on 12-well glass bottom plates at a confluence of ˜15%. The cells were suspended in primary keratinocyte growth media (Epilife media with calcium) and incubated @ 37° C. for 1d (Day 0). At Day 1, cells began treatment with supplemented primary keratinocyte growth media (Epilife media with calcium supplemented with HKGS 100X; 25 ml total) without test compound (Control sample) or containing test compounds B3 (10 mM), MeNAM (10 mM), AceMet (500 uM), B3 (10 mM)+AceMet (500 uM) or B3 (10 mM)+MeNAM (500 uM). Cell treatment (25 ml media with or without test compounds as above) continued daily for 4 additional days (Non-UV Study—Example 1) or 2 additional days (UV Study—Example 2). For the UV Study, cells were subjected to UV treatment on Day 4 by replacing media with PBS, exposing cells to UV light (4 J/cm^2 of UVA+UVB) for 14 min and feeding cells with media with or without corresponding test compounds as defined above. UV treatments continued daily for 3 additional days (Days 5, 6 and 7). Image acquisition and analysis on all cell wells to assess mitochondrial fragmentation was conducted on Day 1, 3, 5 and 8.
(§1) For two-photon excited fluorescence (TPEF) imaging, cell cultures were placed in microscope-compatible micro-incubator system, which maintained 37° C. within a humidified environment throughout the imaging session.
HEPES buffering agent (Sigma) was added to cell cultures in primary keratinocyte growth medium before imaging, which maintained the pH of cell cultures throughout the imaging session. Images were obtained using a Leica TCS SP8 confocal microscope equipped with a tunable (680-1300 nm) titanium-sapphire laser (InSight Deep See; Spectra Physics; Mountain View, Calif.). Images (1024×1024 pixels; 386×386 μm) were acquired using water-immersion 25×objective (NA 0.95; 2.4 mm working distance), with simultaneous collection by two non-descanned photomultiplier tube (PMT) detectors using a filter cube containing filters from Chroma (Bellows Falls, Vt.), including a 700 nm short pass filter (ET700SP-2P) and a 495 nm dichroic mirror (495DCXR). To isolate NADH fluorescence, a 460(±20) nm emission filter (Chroma, ET460/40M-2P), corresponding to the NADH emission peak, was placed before one of the non-descanned detectors. NADH fluorescence images were acquired from this 460 nm channel using 755 nm excitation. FAD fluorescence was isolated using a 525(±25) nm emission filter (Chroma, ET525/50M-2P) for the other non-descanned detector and 860 nm excitation. The two-photon action cross section of NADH decreases by several orders of magnitude between 755 nm and 860 nm excitation, enabling an efficient isolation of FAD at longer wavelengths. The fluorescence lifetime images (512×512 pixels; 386×386 μm) corresponding to NADH were acquired under the same excitation and emission settings, using SymPho software. PMT gain was adjusted for each image to maximize contrast while preventing a saturated pixel intensity value. The PMT gain and laser power were recorded for each image and used to normalize fluorescence intensity.
To assess mitochondrial fragmentation, a previously established Fourier transform technique was used to obtain power spectral density (PSD) curves from each image. […]

human keratinocytes [2] = assay: Mitochondrial fragmentation in keratinocytes (Non-UV Study, Example 1), TPEF imaging of NADH, PSD exponent β; format: cell-based; settings: no UV, B3 10 mM
Description: Test compounds (B3, AceMet and MeNAM) were purchased from Sigma (St. Louis, Mo.). Cell culture growth media (Epilife media with calcium (Cat #MEPI500CA) and Epilife media supplement HKGS 100X (Cat #S-001-5)) was purchased from Thermofisher (Waltham, Mass.). Cryopreserved human keratinocytes cells (˜1×10^6 cells) were plated on 12-well glass bottom plates at a confluence of ˜15%. The cells were suspended in primary keratinocyte growth media (Epilife media with calcium) and incubated @ 37° C. for 1d (Day 0). […]
as §1
HEPES buffering agent (Sigma) was added to cell cultures in primary keratinocyte growth medium before imaging, which maintained the pH of cell cultures throughout the imaging session. […] To isolate NADH fluorescence, a 460(±20) nm emission filter (Chroma, ET460/40M-2P), corresponding to the NADH emission peak, was placed before one of the non-descanned detectors. NADH fluorescence images were acquired from this 460 nm channel using 755 nm excitation. FAD fluorescence was isolated using a 525(±25) nm emission filter (Chroma, ET525/50M-2P) for the other non-descanned detector and 860 nm excitation. […]

Q: For `C[n+]1cccc(C(N)=O)c1` [MeNAM, 1-methylnicotinamide chloride], which “Effect on mitochondrial fragmentation in words, Non UV-exposed keratinocytes” value (shortened to “Effect … Non UV-exposed keratinocytes”) (human keratinocytes [1]) is on record?
A: significantly reduces mitochondrial fragmentation

Q: And the “Effect on UV-induced mitochondrial fragmentation in words” value (human keratinocytes [1])?
A: effective at reducing this UV-induced effect down to control levels

Q: What about the “Mitochondrial Fragmentation (−) UV (3 days)” value (human keratinocytes [1]) of the same compound?
A: 1.15^a

Q: And the “Mitochondrial Fragmentation (+) UV (4 days)” value (human keratinocytes [1])?
A: 1.29^a,d

Q: For `NC(=O)c1cccnc1` [B3, Nicotinamide], which “Mitochondrial Fragmentation” value (human keratinocytes [2]; keratinocytes after 5 days exposure, AceMet 500 uM, MeNAM 500 uM, higher value = less protection, control 1.88) is on record?
A: 1.67 ^a

Q: And the “Effect on mitochondrial fragmentation in words” value (human keratinocytes [2]; keratinocytes, 5 days, AceMet or MeNAM 500 uM)?
A: decreases mitochondrial fragmentation

Q: And the “Effect … Non UV-exposed keratinocytes” value (human keratinocytes [1])?
A: does not significantly reduce mitochondrial fragmentation

Q: And the “Effect on UV-induced mitochondrial fragmentation in words” value (human keratinocytes [1])?
A: effective at reducing this UV-induced effect down to control levels

Q: And the “Mitochondrial Fragmentation (−) UV (3 days)” value (human keratinocytes [1])?
A: 1.18

Q: And the “Mitochondrial Fragmentation (+) UV (4 days)” value (human keratinocytes [1])?
A: 1.34 ^d

Q: Which “Effect … Non UV-exposed keratinocytes” value (human keratinocytes [1]) does the source give for `CSCC[C@H](NC(C)=O)C(=O)O` [AceMet, N-acetylmethionine] here?
A: does not significantly reduce mitochondrial fragmentation

Q: What about the “Effect on UV-induced mitochondrial fragmentation in words” value (human keratinocytes [1]) of the same compound?
A: increases mitochondrial fragmentation beyond UV-exposed levels

Q: And the “Mitochondrial Fragmentation (−) UV (3 days)” value (human keratinocytes [1])?
A: 1.47^c,e

Q: What about the “Mitochondrial Fragmentation (+) UV (4 days)” value (human keratinocytes [1]) of the same compound?
A: 1.76^c,e,h
